Experimental data published in US20040259936A1, “Treatment of neoplasia” (priority 2001, published 2004).

How the values were obtained:
[1] = tested on: EL-4 tumor cells; experiment: Cannabinoid-induced apoptosis in vitro (TUNEL or annexin V/PI); type: cell-based, murine; settings: for induction of apoptosis (annexin/PI) compared with controls: 3 μM
Description: (§1) The cells were washed twice with PBS. […] Five thousand cells were analyzed per sample.

[2] = tested on: Jurkat; experiment: Cannabinoid-induced apoptosis in vitro (TUNEL); type: cell-based, human; settings: 5 μM JWH-015, serum-free medium, 24 hours
Description: as §1

[3] = cited from earlier work
[4] = tested on: Molt-4; experiment: Tumor-cell viability in vitro, trypan blue dye exclusion; type: cell-based, human; settings: Molt-4, serum-free medium, 24 hours
Description: (§2) Measurement of the effect of cannabinoid receptor aponistson tumor-cell viability in vitro: Tumor cells were adjusted to 1×10^6 cells/mL in medium containing 5% FCS or serum-free medium. The cells (1×10^6) were cultured in 24-well plates in 2 mL medium in the presence or absence of various concentrations of cannabinoid receptor agonists for 2 to 24 hours. Finally, the cells were harvested and washed twice in PBS, and the viable cell count was determined by trypan blue dye exclusion.

[5] = tested on: Jurkat; experiment: as above; type: cell-based, human
Description: as §2

[6] = tested on: Molt-4; experiment: Cannabinoid-induced apoptosis in vitro (TUNEL); type: cell-based, human; design: induction of apoptosis (TUNEL): dose or concentration left out as unconfirmed
Description: as §1

[7] = tested on: EL-4 tumor cells; experiment: Survival of EL-4-challenged mice; type: in vivo, C57BL/6 mice; settings: 5 mg/kg IP daily for 14 days
Description: Effect of THC on survival of EL-4-challenged mice: Groups of 8 C57BL/6 mice were injected […] with 1×10^6 EL-4 tumor cells in a volume of 100 μL PBS. One day following tumor injection, the mice received daily IP injections for 14 days with 5 mg/kg THC in a volume of 500 μL PBS. Control mice received injections with the vehicle control. The mice were observed daily for signs of morbidity and were euthanized. Mice that survived for more than 60 days were rechallenged with live EL-4 cells (1×10^6) and tested for their ability to reject tumor and survive.

[8] = tested on: EL-4 tumor cells; experiment: Tumor-cell viability in vitro, trypan blue dye exclusion; type: cell-based, murine; design: time required to induce tumor-cell killing: dose or concentration left out as unconfirmed
Description: as §2

[9] = rats injected with 50 mg/kg, within 10 hours of administration; cited from earlier work
[10] = tested on: P815 tumor cells; experiment: Tumor-cell viability in vitro, trypan blue dye exclusion; type: cell-based, murine; settings: P815, medium with 5% FCS, 24 hours
Description: as §2

[11] = tested on: LSA tumor cells; experiment: as above; type: cell-based, murine; settings: medium with 5% FCS, 24 hours
Description: as §2

[12] = tested on: EL-4 tumor cells; experiment: Tumor-cell viability and induction of apoptosis in vivo in EL-4 tumor-bearing mice; design: species or system C57BL/6 mice
Description: Measurement of tumor-cell viability and induction of apoptosis in vivo: Groups of 5 C57BL/6 mice were injected intraperitoneally (IP) with 1×10^6 EL-4 tumor cells suspended in 0.2 mL PBS. The control mice received PBS alone. Ten days later, the mice were injected with various concentrations of THC (0, 1, 3, or 5 mg/kg […]). The mice were killed 24 hours later and the EL-4 tumor cells were harvested from the peritoneal cavity by injecting 5.0 mL PBS, followed by aspiration of the peritoneal fluid from the cavity. The contaminating red blood cells were removed with red blood lysing solution (Sigma), and the tumor cells were washed twice with PBS. The number of viable cells was determined by trypan blue dye exclusion, and apoptosis was determined using the TUNEL assay. The presence of tumor cells in the peritoneal cavity was confirmed by the ability of the cells to grow in vitro and by the phenotype (Thyl-, CD4-, CD8-).

[13] = tested on: primary ALL cells; experiment: Viability of primary ALL cells in vitro, trypan blue dye exclusion; type: cell-based, human; settings: ALL no. 1 and ALL no. 2, serum-free medium, 2 hours
Text: Primary leukemic cells: Peripheral blood samples were obtained from 2 patients diagnosed with ALL. The samples were referred to as ALL no. 1 and ALL no. 2. ALL no. 1 was obtained from a patient newly diagnosed with common acute lymphoblastic leukemia antigen (CALLA) (CD10)-positive non-B, non-T ALL. ALL no. 2 was obtained from a patient newly diagnosed with terminal deoxynucleotidyl transferase (TdT)-positive T-cell ALL. Informed consent was obtained following institutional guidelines and approval was obtained from the institutional review board of Virginia Commonwealth University. Consent was provided according to the Declaration of Helsinki.
The content of the lymphoblasts was greater than 70% as determined by flow cytometric analysis. Mononuclear cells were isolated by Ficoll-Paque density gradient centrifugation. In this study, the samples were cryopreserved and stored in liquid nitrogen before use. Viability after thawing was determined by trypan blue dye exclusion and was greater than 90%.
Measurement of the effect of cannabinoid receptor aponistson tumor-cell viability in vitro: Tumor cells were adjusted to 1×10^6 cells/mL in medium containing 5% FCS or serum-free medium. […] Finally, the cells were harvested and washed twice in PBS, and the viable cell count was determined by trypan blue dye exclusion.

[14] = tested on: Sup-T1; experiment: Tumor-cell viability in vitro, trypan blue dye exclusion; type: cell-based, human; settings: Sup-T1, 5 μM THC, 4 hours
Description: as §2

[15] = tested on: thymus and spleen; experiment: Cellularity of thymus and spleen after administration to C57BL/6 mice; settings: resulted from apoptosis in immune cells
[16] = tested on: P815 tumor cells; experiment: Cannabinoid-induced apoptosis in vitro (TUNEL); type: cell-based, murine; settings: P815, 5% FCS, 24 hours, 20 μM THC (printed 201M)
Description: as §1

[17] = tested on: LSA tumor cells; experiment: Cannabinoid-induced apoptosis in vitro (TUNEL); type: cell-based, murine; settings: 5% FCS, 24 hours, 20 μM THC (printed 201M)
Description: as §1

[18] = tested on: tumor cells; experiment: Dose of THC that induced apoptosis in vitro, with and without serum; type: cell-based
Description: as §1

[19] = target: CB2 receptors (Homo sapiens, UniProt P34972); settings: human tumor cells, pretreatment with the CB2 antagonist
CB2 receptors, sequence (P34972 whole entry): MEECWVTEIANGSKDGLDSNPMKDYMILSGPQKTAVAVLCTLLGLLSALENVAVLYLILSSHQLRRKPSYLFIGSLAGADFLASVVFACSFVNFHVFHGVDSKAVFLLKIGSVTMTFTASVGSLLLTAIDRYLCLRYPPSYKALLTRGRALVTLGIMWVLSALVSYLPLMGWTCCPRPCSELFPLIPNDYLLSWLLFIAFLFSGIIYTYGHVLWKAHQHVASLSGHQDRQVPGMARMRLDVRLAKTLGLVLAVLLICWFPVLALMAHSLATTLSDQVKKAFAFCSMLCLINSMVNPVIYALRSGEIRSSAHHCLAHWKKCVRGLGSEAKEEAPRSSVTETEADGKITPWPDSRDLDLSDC
Description: Next, the cells were harvested, washed twice in PBS, and analyzed for the induction of apoptosis using either the terminal deoxynucleotidyl transferase-mediated end labeling (TUNEL) method or annexin V/propidium iodide (PI) method, as described elsewhere (references 14,15 incorporated herein by reference). To detect apoptosis using the TUNEL method, we washed the cells twice with PBS and fixed them with 4% p-formaldehyde for 30 minutes at room temperature. The cells were next washed with PBS, permeabilized on ice for 2 minutes, and incubated with fluorescein isothiocyanate-dUTP and TdT (Boehringer Mannheim, Indianapolis, Ind.) for 1 hour at 37° C. and 5% CO2. To detect apoptosis using the annexin V/PI method, we washed the cells twice with PBS and stained them with annexin V and PI for 20 minutes at room temperature. The cells were washed twice with PBS. The levels of apoptosis in both the TUNEL and annexin/PI assays were determined by measuring the fluorescence of the cells by flow cytometric analysis. Five thousand cells were analyzed per sample.

[20] = EL-4, serum-free medium, 4 hours
[21] = EL-4, serum-free medium, 5 μM, 4 hours
[22] = 5 mg/kg IP on day 10, harvest 24 hours later

CCCCCCC(C)(C)c1cc(O)c2c(c1)OC(C)(C)[C@@H]1CC=C(CO)C[C@@H]21 [HU-210]
induction of apoptosis (annexin/PI) compared with controls [1, 20]: significant increase in apoptosis

CCCn1c(C)c(C(=O)c2cccc3ccccc23)c2ccccc21 [JWH-015, (2-Methyl-1-propyl-1H-indol-3-yl)-1-naphthalenylmethanone]
induction of apoptosis (TUNEL) [2]: significant induction of apoptosis
soluble to, in DMSO ([3]; DMSO): 10 mM
soluble to, in ethanol ([3]; ethanol): 25 mM
concentration leading to a significant decrease in the number of viable tumor cells [4]: ≥ 5 µM
concentration leading to a significant decrease in the number of viable tumor cells ([5]; serum-free medium, 24 hours): ≥ 5 µM
induction of apoptosis (TUNEL) ([6]; Molt-4, JWH-015, serum-free medium, 24 hours): significant induction of apoptosis

CCCCCc1cc(O)c2c(c1)OC(C)(C)[C@@H]1CCC(C)=C[C@@H]21 [THC, Delta-9-tetrahydrocannabinol]
survival of EL-4 tumor-bearing mice [7]: significant increase in survival
mice that survived the tumor challenge / were cured ([7]; listed as TEC): approximately 25%
concentration leading to a significant reduction in the number of viable cells ([8]; EL-4, medium with 5% FCS, 24 hours): ≥ 10 µM
time required to induce tumor-cell killing ([8]; EL-4, serum-free medium): 4 h
concentration leading to a significant decrease in tumor-cell viability [8, 20]: 5 µM
concentration causing a significant decrease in tumor-cell viability ([8]; EL-4, serum-free medium, 12 hours): 3 µM
THC in the serum [9]: 10 µM
induction of apoptosis (TUNEL) ([1]; EL-4, 5% FCS, 24 hours, 20 μM THC (printed 201M)): induced significant apoptosis
induction of apoptosis (annexin/PI) compared with controls [1, 20]: significant increase in apoptosis
induction of apoptosis (TUNEL and annexin/PI) [1, 21]: increase in the induction of apoptosis
concentration leading to a significant reduction in the number of viable cells [10]: ≥ 10 µM
concentration leading to a significant reduction in the number of viable cells [11]: ≥ 10 µM
viable tumor-cell number in the peritoneal cavity ([12]; 1 mg/kg IP on day 10, harvest 24 hours later): failed to cause a decrease in cellularity
viable tumor-cell number in the peritoneal cavity ([12]; 3 mg/kg IP on day 10, harvest 24 hours later): effective
proportion of tumor cells showing apoptosis (TUNEL) [12, 22]: 77.3%
viable tumor-cell number in the peritoneal cavity [12, 22]: effective
concentration resulting in significant reduction in viability [13]: ≥ 5 µM
number of viable tumor cells [14]: dramatic reduction in the number of viable tumor cells
number of viable tumor cells ([5]; 5 μM THC, 4 hours): dramatic reduction in the number of viable tumor cells
cellularity of the thymus and spleen [15]: marked decrease in the cellularity of the thymus and spleen
induction of apoptosis (TUNEL) [16]: induced significant apoptosis
induction of apoptosis (TUNEL) [17]: induced significant apoptosis
dose that induced apoptosis in vitro ([18]; serum-containing medium): ≥ 10 µM
dose that induced apoptosis in vitro ([18]; serum-free medium): ≥ 3 µM

Cc1c(C(=O)c2cccc3ccccc23)c2cccc3c2n1[C@H](CN1CCOCC1)CO3 [WIN55212]
induction of apoptosis (annexin/PI) compared with controls [1, 20]: no significant effect

CCCCC/C=C\C/C=C\C/C=C\C/C=C\CCCC(=O)NCCO [anandamide]
induction of apoptosis (TUNEL) [1, 21]: slight increase in apoptosis
induction of apoptosis (TUNEL) ([1]; EL-4, serum-free medium, 10 μM, 4 hours): significant levels of apoptosis
concentration leading to significant levels of apoptosis (TUNEL) ([6]; Molt-4, serum-free medium, 4 hours): ≥ 20 µM

SR144528
effect of pretreatment on THC-induced apoptosis [19]: partially reversed
